Patent EP4667458A1 (Kanaph Therapeutics Inc., priority 2023, dated 2024)

Molecular target: T1, KRAS^G12C::SOS1 (Homo sapiens, UniProt Q07889)
T1 sequence (Q07889 1-1333): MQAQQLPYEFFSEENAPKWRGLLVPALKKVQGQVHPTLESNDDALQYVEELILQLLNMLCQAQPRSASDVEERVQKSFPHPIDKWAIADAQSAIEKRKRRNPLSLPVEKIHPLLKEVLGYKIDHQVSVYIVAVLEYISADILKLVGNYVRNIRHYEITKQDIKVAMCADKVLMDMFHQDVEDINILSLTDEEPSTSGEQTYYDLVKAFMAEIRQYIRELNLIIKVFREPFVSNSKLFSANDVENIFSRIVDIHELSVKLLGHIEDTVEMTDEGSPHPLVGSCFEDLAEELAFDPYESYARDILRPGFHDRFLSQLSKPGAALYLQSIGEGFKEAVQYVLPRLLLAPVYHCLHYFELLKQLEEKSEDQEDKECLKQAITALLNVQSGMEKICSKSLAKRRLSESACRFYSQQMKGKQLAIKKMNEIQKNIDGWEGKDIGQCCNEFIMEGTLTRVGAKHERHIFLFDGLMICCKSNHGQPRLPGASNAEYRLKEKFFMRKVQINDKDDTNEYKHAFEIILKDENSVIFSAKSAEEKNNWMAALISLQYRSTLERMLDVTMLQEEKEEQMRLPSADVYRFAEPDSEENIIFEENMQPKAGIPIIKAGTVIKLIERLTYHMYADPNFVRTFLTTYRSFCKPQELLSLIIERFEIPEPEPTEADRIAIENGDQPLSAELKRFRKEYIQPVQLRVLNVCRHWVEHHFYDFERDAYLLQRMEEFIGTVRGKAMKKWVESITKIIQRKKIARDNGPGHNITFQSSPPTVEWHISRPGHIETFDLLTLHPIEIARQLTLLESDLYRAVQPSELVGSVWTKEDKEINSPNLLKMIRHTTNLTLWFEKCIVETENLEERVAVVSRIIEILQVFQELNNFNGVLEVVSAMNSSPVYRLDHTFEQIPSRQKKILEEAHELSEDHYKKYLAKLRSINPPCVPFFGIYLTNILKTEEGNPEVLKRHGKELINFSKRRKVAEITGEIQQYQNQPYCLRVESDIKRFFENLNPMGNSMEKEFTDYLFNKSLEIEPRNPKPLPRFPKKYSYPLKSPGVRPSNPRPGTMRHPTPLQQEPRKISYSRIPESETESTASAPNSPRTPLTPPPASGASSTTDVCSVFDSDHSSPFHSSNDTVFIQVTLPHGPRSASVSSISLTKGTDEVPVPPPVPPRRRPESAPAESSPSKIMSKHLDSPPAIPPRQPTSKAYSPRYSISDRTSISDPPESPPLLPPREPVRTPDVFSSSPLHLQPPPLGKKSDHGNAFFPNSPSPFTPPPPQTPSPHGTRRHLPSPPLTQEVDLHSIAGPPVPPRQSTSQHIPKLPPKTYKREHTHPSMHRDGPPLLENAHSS
Experiment: KRAS G12C::SOS1 protein-protein interaction (PPI) inhibition assay (HTRF binding kit)

`C[C@@H](NC(=O)c1ccc(=O)n(CCF)n1)c1cc(N)cc(C(F)(F)F)c1` [Example 226, N-[(1R)-1-[3-amino-5-(trifluoromethyl)phenyl]ethyl]-1-(2-fluoroethyl)-6-oxo-pyridazine-3-carboxamide] and `C[C@@H](NC(=O)c1ccc(=O)n(-c2cnn(C)c2Cl)n1)c1cc(N)cc(C(F)(F)F)c1` [Example 209, N-[(1R)-1-[3-amino-5-(trifluoromethyl)phenyl]ethyl]-1-(5-chloro-1-methyl-pyrazol-4-yl)-6-oxo-pyridazine-3-carboxamide] cannot be ordered by IC50: less than 1000 nM for the first, less than 1000 nM for the second.

`C[C@@H](NC(=O)c1ccc(=O)n(-c2cccc(-c3ccon3)c2)n1)c1cc(N)cc(C(F)(F)F)c1` [Example 376, N-[(1R)-1-[3-amino-5-(trifluoromethyl)phenyl]ethyl]-1-(3-isoxazol-3-ylphenyl)-6-oxo-pyridazine-3-carboxamide] and `C[C@@H](NC(=O)c1ccc(=O)n(-c2cccc(-c3cncs3)c2)n1)c1cc(N)cc(C(F)(F)F)c1` [Example 341, N-[(1R)-1-[3-amino-5-(trifluoromethyl)phenyl]ethyl]-6-oxo-1-(3-thiazol-5-ylphenyl)pyridazine-3-carboxamide] cannot be ordered by IC50: less than 1000 nM for the first, less than 1000 nM for the second.

First: C[C@@H](NC(=O)c1ccc(=O)n(-c2ccccc2F)n1)c1cc(N)cc(C#N)c1F [Example 216, N-[(1R)-1-(5-amino-3-cyano-2-fluoro-phenyl)ethyl]-1-(2-fluorophenyl)-6-oxo-pyridazine-3-carboxamide]
Second: COCC(F)(F)c1cccc([C@@H](C)NC(=O)c2ccc(=O)n(-c3ccccc3F)n2)c1F [Example 242, N-[(1R)-1-[3-(1,1-difluoro-2-methoxy-ethyl)-2-fluoro-phenyl]ethyl]-1-(2-fluorophenyl)-6-oxo-pyridazine-3-carboxamide]
The IC50 of the first is higher: 1000 to 10000 nM for the first, less than 1000 nM for the second. The second is the more potent here.

`C[C@@H](NC(=O)c1ccc(=O)n(-c2cccc(-c3cccc(=O)n3C)c2)n1)c1cc(N)cc(C(F)(F)F)c1` [Example 351, N-[(1R)-1-[3-amino-5-(trifluoromethyl)phenyl]ethyl]-1-[3-(1-methyl-6-oxo-2-pyridyl)phenyl]-6-oxo-pyridazine-3-carboxamide] and `C[C@@H](NC(=O)c1ccc(=O)n(-c2cccc(-c3ncn(C)n3)c2)n1)c1cc(N)cc(C(F)(F)F)c1` [Example 323, N-[(1R)-1-[3-amino-5-(trifluoromethyl)phenyl]ethyl]-1-[3-(1-methyl-1,2,4-triazol-3-yl)phenyl]-6-oxo-pyridazine-3-carboxamide] cannot be ordered by IC50: less than 1000 nM for the first, less than 1000 nM for the second.

`C[C@@H](NC(=O)c1ccc(=O)n(-c2ccccc2F)c1)c1cc(N)cc(C(F)F)c1` [Example 263, N-[(1R)-1-[3-amino-5-(difluoromethyl)phenyl]ethyl]-1-(2-fluorophenyl)-6-oxo-pyridine-3-carboxamide] and `C[C@@H](NC(=O)c1ccc(=O)n(-c2ccccc2F)c1)c1cc(N)cc(C(F)(F)F)c1` [Example 218, N-[(1R)-1-[3-amino-5-(trifluoromethyl)phenyl]ethyl]-1-(2-fluorophenyl)-6-oxo-pyridine-3-carboxamide] cannot be ordered by IC50: less than 1000 nM for the first, less than 1000 nM for the second.

Going from `C[C@@H](NC(=O)c1nn(-c2ccccc2F)c(=O)cc1N)c1cc(N)cc(C(F)(F)F)c1` [Example 381, 4-amino-N-[(1R)-1-[3-amino-5-(trifluoromethyl)phenyl]ethyl]-1-(2-fluorophenyl)-6-oxo-pyridazine-3-carboxamide] to `C[C@@H](NC(=O)c1nn(-c2ccccc2F)c(=O)cc1O)c1cc(N)cc(C(F)(F)F)c1` [Example 363, N-[(1R)-1-[3-amino-5-(trifluoromethyl)phenyl]ethyl]-1-(2-fluorophenyl)-4-hydroxy-6-oxo-pyridazine-3-carboxamide], the IC50 rises from less than 1000 nM to greater than 10000 nM. The first is the more potent here.

`CNCc1cccc(F)c1-c1ccc([C@@H](C)NC(=O)c2ccc(=O)n(-c3cccnc3F)n2)s1` [Example 293, N-[(1R)-1-[5-[2-fluoro-6-(methylaminomethyl)phenyl]-2-thienyl]ethyl]-1-(2-fluoro-3-pyridyl)-6-oxo-pyridazine-3-carboxamide] and `CNCc1ccc(Cl)cc1-c1ccc([C@@H](C)NC(=O)c2ccc(=O)n(-c3cccnc3NC)n2)s1` [Example 271, N-[(1R)-1-[5-[5-chloro-2-(methylaminomethyl)phenyl]-2-thienyl]ethyl]-1-[2-(methylamino)-3-pyridyl]-6-oxo-pyridazine-3-carboxamide] cannot be ordered by IC50: less than 1000 nM for the first, less than 1000 nM for the second.

First: C[C@@H](NC(=O)c1nn(-c2ccccc2F)c(=O)c2ccsc12)c1cccc(C(F)(F)CO)c1F [Example 310, N-[(1R)-1-[3-(1,1-difluoro-2-hydroxy-ethyl)-2-fluoro-phenyl]ethyl]-5-(2-fluorophenyl)-4-oxo-thieno[2,3-d]pyridazine-7-carboxamide]
Second: C[C@@H](NC(=O)c1nn(-c2ccccc2F)c(=O)cc1OCc1ccccc1)c1cccc(C(F)(F)CO)c1F [Example 364, 4-benzyloxy-N-[(1R)-1-[3-(1,1-difluoro-2-hydroxy-ethyl)-2-fluorophenyl]ethyl]-1-(2-fluorophenyl)-6-oxo-pyridazine-3-carboxamide]
The IC50 of the first is lower: less than 1000 nM for the first, 1000 to 10000 nM for the second.

`C[C@@H](NC(=O)c1ccc(=O)n(-c2ccccc2F)n1)c1cccc(C(F)(F)CN(C)C)c1F` [Example 257, N-[(1R)-1-[3-[2-(dimethylamino)-1,1-difluoro-ethyl]-2-fluorophenyl]ethyl]-1-(2-fluorophenyl)-6-oxo-pyridazine-3-carboxamide] and `CNCC(F)(F)c1cccc([C@@H](C)NC(=O)c2ccc(=O)n(-c3ccccc3F)n2)c1F` [Example 256, N-[(1R)-1-[3-[1,1-difluoro-2-(methylamino)ethyl]-2-fluorophenyl]ethyl]-1-(2-fluorophenyl)-6-oxo-pyridazine-3-carboxamide] cannot be ordered by IC50: less than 1000 nM for the first, less than 1000 nM for the second.

`C[C@@H](NC(=O)c1ccc(=O)n(-c2ccncc2)c1)c1cc(N)cc(C(F)(F)F)c1` [Example 163, N-[(1R)-1-[3-amino-5-(trifluoromethyl)phenyl]ethyl]-6-oxo-1-(4-pyridyl)pyridine-3-carboxamide] and `COc1ccccc1-n1cc(C(=O)N[C@H](C)c2cc(N)cc(C(F)(F)F)c2)ccc1=O` [Example 168, N-[(1R)-1-[3-amino-5-(trifluoromethyl)phenyl]ethyl]-1-(2-methoxyphenyl)-6-oxo-pyridine-3-carboxamide] cannot be ordered by IC50: less than 1000 nM for the first, less than 1000 nM for the second.

`C[C@@H](NC(=O)C1=NN(c2ccccc2)C(=O)CC1)c1cc(N)cc(C(F)(F)F)c1` [Example 264, N-[(1R)-1-[3-amino-5-(trifluoromethyl)phenyl]ethyl]-6-oxo-1-phenyl-4,5-dihydropyridazine-3-carboxamide] and `Cc1ncc(-n2nc(C(=O)N[C@H](C)c3cc(N)cc(C(F)(F)F)c3)ccc2=O)cn1` [Example 161, N-[(1R)-1-[3-amino-5-(trifluoromethyl)phenyl]ethyl]-1-(2-methylpyrimidin-5-yl)-6-oxo-pyridazine-3-carboxamide] cannot be ordered by IC50: less than 1000 nM for the first, less than 1000 nM for the second.

`C[C@@H](NC(=O)c1ccc(=O)n(-c2cccc(C(=O)N3CCOCC3)c2)n1)c1cc(N)cc(C(F)(F)F)c1` [Example 254, N-[(1R)-1-[3-amino-5-(trifluoromethyl)phenyl]ethyl]-1-[3-(morpholine-4-carbonyl)phenyl]-6-oxo-pyridazine-3-carboxamide] and `C[C@@H](NC(=O)c1ccc(=O)n(-c2ccc3nnn(C)c3c2)n1)c1cc(N)cc(C(F)(F)F)c1` [Example 238, N-[(1R)-1-[3-amino-5-(trifluoromethyl)phenyl]ethyl]-1-(1-methyl-1H-1,2,3-benzotriazol-6-yl)-6-oxo-1,6-dihydropyridazine-3-carboxamide] cannot be ordered by IC50: less than 1000 nM for the first, less than 1000 nM for the second.

`COc1ccc(F)c(-n2nc(C(=O)N[C@H](C)c3cccc(C(F)(F)CO)c3F)ccc2=O)c1` [Example 182, N-[(1R)-1-[3-(1,1-difluoro-2-hydroxy-ethyl)-2-fluoro-phenyl]ethyl]-1-(2-fluoro-5-methoxyphenyl)-6-oxo-pyridazine-3-carboxamide] and `COc1cccc(-n2nc(C(=O)N[C@H](C)c3cccc(C(F)(F)CO)c3F)ccc2=O)c1F` [Example 184, N-[(1R)-1-[3-(1,1-difluoro-2-hydroxy-ethyl)-2-fluoro-phenyl]ethyl]-1-(2-fluoro-3-methoxyphenyl)-6-oxo-pyridazine-3-carboxamide] cannot be ordered by IC50: less than 1000 nM for the first, less than 1000 nM for the second.
